Earlier results in patent US12297161B2, “Process for making sarecycline hydrochloride” (PARATEK PHARMACEUTICALS, INC., priority 2018, dated 2025).

Tests used:
[1] = system: aerobic Gram-negative gastrointestinal (GI) organisms; details: compared with minocycline and doxycycline
[2] = in vivo

CON(C)Cc1ccc(O)c2c1C[C@H]1C[C@H]3[C@H](N(C)C)C(O)=C(C(N)=O)C(=O)[C@@]3(O)C(O)=C1C2=O [Sarecycline, (4S, 4aS, 5aR, 12aS)-4-dimethylamino-3, 10, 12, 12a-tetrahydroxy-7-[(methoxy (methyl)amino)-methyl]-1, 11-dioxo-1,4,4a, 5,5a, 6, 11, 12a-octahydro-naphthacene-2-carboxylic acid amide]
antibacterial activity against aerobic Gram-negative gastrointestinal (GI) organisms [1]: more limited activity against aerobic Gram-negative gastrointestinal (GI) organisms than minocycline and doxycycline
inflammatory lesions of moderate to severe acne vulgaris [2]: reduce inflammatory lesions
